The values below come from patent US20040132821A1, “Therapeutic combination of carnitine and antioxidant polyphenols” (priority 2002, published 2004).

For series [1] the following is noted: humans, after ingestion; cited from earlier work.
For series [2] the following is noted: after consumption of a meal, hydroxytyrosol in olive oil; cited from earlier work.
The conditions of series [3]: cited from earlier work.
The test system of another series is rats. Put plainly: Toxicological test, parenteral administration, rats. The format is in vivo. The source says: (§1) Both carnitines and hydroxytyrosol are well known for their low toxicity and good tolerability. These favorable toxicological characteristics of carnitines and hydroxytyrosol have been confirmed.
In another series the test system is mice. The series is described as follows: Toxicological test, parenteral administration, mice. The format is in vivo.
Source text: as §1

Like-named read-outs stand apart in the source and are kept apart here.

For `OCCc1ccc(O)c(O)c1` [hydroxytyrosol, Hydroxytyrosol], the “preferential route of excretion” value in series [1] is reported as “glucuronide conjugates in urine”. Moreover, in series [2], the “time of peak postprandial concentration” value was 1 to 2 h. The oral bioavailability in series [3] (aqueous solution) was 71%; in series [3] (olive oil solution), 99%.

Regarding `CC(=O)O[C@H](CC(=O)[O-])C[N+](C)(C)C` [acetyl-L-carnitine, Acetyl-L-carnitine], the “amount possible to administer parenterally” value with rats and with mice was “up to 250 mg/kg” throughout.
